Test results as given in patent US11938129B2, “Methods and compositions for the treatment of vascular disease” (THE GENERAL HOSPITAL CORPORATION, priority 2018, dated 2024).
“Also recorded” adds a separate entry of the source.

What was measured:
[1] = tested on: FAK; assay: immunofluorescence of p-FAK in ligated carotid; format: in vivo, mouse; conditions: media and intima of carotid arteries
Protocol: (§1) All mice used in this study were cared for under strict compliance with the Partners Institutional Animal Care and Use Committee (IACUC), regulated by the United States Public Health Service (USPHS). Carotid ligations were performed in 10 week old mice. Briefly, animals were anesthetized using intraperitoneal ketamine/xylazine (80 and 12 mg/kg, respectively) followed by a small incision in the neck to expose the carotid artery. Then the left carotid was ligated at the carotid bifurcation level using a 8-0 silk suture. At 21 days mice were sacrificed and carotids were collected for histological analysis. Approximately 98% of wild type mice developed stenotic lesions. Mice that developed thrombosis of the ligated carotid were excluded from the study (−1¬2%). Malatl knockout mice were kindly provided by Dr. David Spector (Cold Spring Harbor, N.Y.). Hdac9 flox/flox/Talgn-cre mice were generated as previously reported (10). […]
(§2) Left and right carotids were cryosectioned using OCT standard protocol and sectioning. […] Slides 1, 5, 10, and 15 were H&E stained for quantification of neointima. For quantification of the neointima, internal and external elastic lamina perimeters and medial thickness from 4 quadrants were measured and averaged using Image J software from the National Institutes of Health (NIH). […]

[2] = tested on: PDGFR; assay: immunofluorescence of p-PDGFR in ligated carotid; format: in vivo, mouse; conditions: media and intima of carotid arteries
Protocol: as §1, §2

[3] = tested on: SM22a; assay: immunostaining of SM22a protein in aortas of treated Fbn1C1039G/+ mice; format: in vivo, mouse; conditions: compared to control Fbn1C1039G/+ mice
Protocol: Latex was injected into the left ventricular apex under low pressure until it was visible in the femoral artery. Animals were then fixed in Formalin (10%) for 24 hours before transfer to 70% ethanol for dissection and storage. Aortas were then removed from the animals or dissected in situ for photography prior to paraffinization and sectioning (10 pM). Slides were produced for tissue staining or stained with standard stains including H&E staining, collagen deposition (Trichrome Stain (Masson) Kit, Sigma, USA), elastin (Verhoeff-Van Gieson, Thermo Scientific, MI, USA) or F-actin (ActinGreen™ 488 ReadyProbes, ThermoFisher Scientific, USA) for quantitative analysis. Elastin integrity score was rated by blinded observers and graded on an arbitrary scale of 5 (indicating high quality elastic fiber) to 1 (indicating severe elastin fragmentation). For nuclear staining aortas from human and mice were cryosectioned using OCT standard protocol as described previously (Fischer et al., 2008). Cohorts of 8-week-old wild-type or Fbn1cw3gGi+ mice were treated with oral administration in drinking water of either Losartan or GSK343 for 20 weeks (FIG. 5). […] Then 200 mL of drinking water was supplemented with 250 pL of GSK343 stock solution. […] Aortic dimensions were monitored monthly by echocardiograms as mentioned above.

[4] = tested on: neointimal formation in ligated carotid; assay: murine carotid artery ligation model: neointimal formation and stenosis (histology); format: in vivo, mouse; conditions: wild-type mice, left carotid ligation, 21 days; GSK343 in drinking water from 24 hrs before ligation for 3 weeks; GapmeR 15 nmol 24 hrs before and 7 days post-ligation
Protocol: as §1, §2

[5] = tested on: Mmp9; assay: immunofluorescence of Mmp9 in ligated carotid; format: in vivo, mouse; conditions: arterial media and intima of carotid arteries
Protocol: as §1, §2

[6] = tested on: VSMCs; assay: cytoskeletal architecture of VSMCs treated with GSK343; format: cell-based, mouse
Protocol: Primary human aortic smooth muscle cells (HAoSMC) from healthy donors were purchased from Cell Applications Inc., California, USA (Cat. #354K-05a). Primary aneurysm aortic SMCs were isolated from fresh TAA tissue at the moment of surgery by standard explant of the aortic media. Mouse aortic SMCs were isolated by standard explant of the ascending section of the aortas from wild-type or Fbn1ci°39G1+ mice. Smooth muscle cell identity was assessed by immunofluorescence staining of contractile markers including SM22a, Calponin, Smoothelin and Vinculin. In order to preserve cell identity all experiments were carried out at passages 1-5 (Timraz et al., 2016). Human and murine SMCs were grown with smooth muscle cell growth medium from Cell Applications Inc. (Cat. #311-500). […] Fresh media containing GSK343 was supplied daily. For GSK343/TGF81 (10 ng/mL) combo treatment, cells were first treated with complete media containing GSK343 at concentration of 10 nM during the 2 first days followed by GSK343/TGFβ combination treatment the next 2 days. Prior to cellular collection cells were washed with sterile PBS and RNA or protein extraction were performed as described above.

SMILES: CCCc1cc(C)[nH]c(=O)c1CNC(=O)c1cc(-c2ccnc(N3CCN(C)CC3)c2)cc2c1cnn2C(C)C [GSK343]
- phosphorylation of FAK [1]: dramatic reduction
- phosphorylation of PDGFR [2]: dramatic reduction
- SM22a protein expression (immunostaining of aortas) [3]: recovery of SM22a protein expression
- extent of the stenotic response / neointimal formation [4]: significant inhibition of neointimal formation; also recorded: dramatically improved the extent of the stenotic response
- accumulation of Mmp9 [5]: decreased accumulation
- cytoskeletal architecture [6]: improved cytoskeletal architecture
